Data as given in patent US11492359B2, “Near-infrared nerve-sparing fluorophores” (OREGON HEALTH & SCIENCE UNIVERSITY, priority 2018, dated 2022).

Key:
[1] = UV-Vis absorption and fluorescence spectroscopy of the Oxazine library; format: physicochemical; conditions: for Extinction coefficient: Beer's Law plots; for Quantum yield: relative, references Oxazine 1, Oxazine 170, Rhodamine 101
Summary of the method: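 Absorbance measured at room temperature in 1-cm quartz cuvette, reference corrected; extinction coefficient from Beer's Law plots of absorbance vs concentration. Fluorescence spectra corrected for PMT response; relative quantum yields averaged over multiple measurements against Oxazine 1, Oxazine 170 and Rhodamine 101 references.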

[2] = test system: murine brachial plexus and sciatic nerves; experiment: Nerve-specificity screening using direct/topical administration; format: in vivo, mouse; conditions: for nerve specificity (N/M contrast vs control group) via direct administration: 125 μM, imaged 30 minutes after staining; for N/M and N/A ratios vs unstained control animals: direct administration
Protocol: All reagents were purchased from Sigma Aldrich, Fisher Scientific, TCI, or Ark Pharm. Unless otherwise indicated, all commercially available starting materials were used directly without further purification. Analytical thin layer chromatography (TLC) was performed on Millipore ready-to-use plates with silica gel 60 (F254, 32-63 μm). Flash chromatography was performed on Sorbent Technologies silica gel for column chromatography or on a Biotage Isolera Flash System using SNAP Ultra cartridges. High-resolution mass spectra (HRMS) were measured on a ThermoElectron LTQ-Orbitrap high resolution mass spectrometer with a dedicated Accela HPLC system, or an Agilent 6244 time-of-flight LCMS with diode array detector VL+. LCMS and Purity Characterization Mass-to-charge ratio and purity of the Oxazine compounds were characterized on an Agilent 6244 time-of-flight tandem liquid chromatography mass spectroscopy (LCMS) with diode array detector VL+. Sample (10 μL) was injected into a C18 column (Poroshell 120, 4.6×50 mm, 2.7 micron), and eluted with a solvent system of A (H2O, 0.1% FA) and B (MeCN, 01.% FA) at 0.4 mL/min, from A/B=90/10 to 5/95 over 10 min, maintained at A/B=5/95 for additional 5 min. Ions were detected in positive ion mode by setting the capillary voltage at 4 kV and gas temperature at 350° C. Purity was calculated through area under the curve analysis of the absorbance at 254 nm. UV-Vis Absorption and Fluorescence Spectroscopy. UV-Vis spectra were collected with a Cary 50 UV-Vis spectrophotometer at room temperature, using a 1-cm quartz cuvette. Fluorescence spectra were collected on a Cary Eclipse fluorescence spectrophotometer (Agilent Technologies). All absorbance spectra were reference corrected. Extinction coefficient was calculated from Beer's Law plots of absorbance versus concentration. Fluorescence spectra were corrected for the wavelength dependent response of the R928 photomultiplier tube using a manufacturer generated correction file. Relative quantum yields are reported as the average of multiple measurements using multiple references, including Oxazine 1, Oxazine 170, and Rhodamine 101. Physicochemical Property Calculation. Physicochemical partition coefficients (Log D) values at pH 7.4, number of hydrogen bond donors and acceptors, polar surface area, and the number of rotatable bonds were calculated using Marvin and JChem calculator plugins (ChemAxon, Budapest, Hungary). Nerve-Specificity Screening using Direct/Topical Administration Each compound was screened for its tissue-specificity using a previously published direct/topical administration strategy in murine brachial plexus and sciatic nerves.^1 Each compound from the Oxazine library was formulated in the previously utilized co-solvent formulation (10% DMSO, 5% Kolliphor, 65% serum and 20% phosphate buffered saline) at 125 μM. 100 μL of the formulated Oxazine were incubated on the exposed brachial plexus or sciatic nerve for 5 minutes. The fluorophore containing solution was removed and the area was irrigated with saline 18 times to remove any unbound fluorophore. Co-registered fluorescence and color images were collected of each stained area 30 minutes after Oxazine direct/topical administration using a custom built macroscopic imaging system with 620/60 nm excitation and 700/75 nm bandpass emission filters. Custom written MatLab code was used to analyze the tissue specific fluorescence where regions of interest were selected on the nerve, muscle and adipose tissue using the white light images. These regions of interest were then analyzed on the co-registered matched fluorescence images permitting assessment of the nerve to muscle and nerve to adipose ratios in blinded manner. […]

[3] = test system: murine brachial plexus and sciatic nerves; experiment: Nerve-specificity screening using systemic administration; format: in vivo; conditions: for nerve specificity / nerve contrast (N/M vs control group) following systemic administration: 200 nmol, 4 hours prior to imaging; for N/M and N/A ratios vs unstained control animals: systemic administration
[4] = test system: mouse brachial plexus nerves; experiment: Nerve imaging at depth under muscle tissue; format: in vivo
Protocol: Nerve imaging at depth studies using a model Oxazine derivative. Oxazine 4 and LGW01-08 were used to stain mouse brachial plexus nerves using both direct and systemic administration methods using the same dose and administration methods previously described. The ability to image the brachial plexus nerve at depth was assessed under varying thicknesses of mouse muscle tissue. Muscle tissue was resected from the peritoneal muscle layer and measured for thickness. One and two layers of resected peritoneal muscle tissue was placed over the stained nerves, providing one and two mm thick homogenous tissue through which the stained nerve tissue was imaged. The same muscle tissue was used to cover the stained nerves from both fluorophores with care taken to orient the muscle in the same way to ensure equivalent comparison. The imaging system configuration was changed to reflect the 700 nm channel in clinically relevant FGS systems (Tummers et al., Eur J Surg Oncol 40, 850-858 (2014); Troyan et al., Ann Surg Oncol 16, 2943-2952 (2009); Ashitate et al., The Journal of surgical research 176, 7-13 (2012); Verbeek et al., The Journal of urology 190, 574-579 (2013); Hillary et al., Langenbecks Arch Surg 403, 111-118 (2018); and Mery et al., Oncotarget 8, 109559-109574 (2017). For fluorescence excitation, the PhotoFluor II was filtered with a 650±22.5 nm bandpass excitation filter. The resulting fluorescence was collected with a 720±30 nm bandpass emission filter for image collection. Camera exposure times ranged from 0.025-4 s for fluorescence image collection.
Image analysis of intraoperative nerve contrast. Custom written MatLab code was used to analyze the tissue specific fluorescence where regions of interest (ROIs) were selected on the nerve, muscle and adipose tissue using the white light images, but blinded to the fluorescence images. These ROIs were then analyzed on the co-registered, matched fluorescence images permitting assessment of the mean tissue intensities as well as the nerve to muscle (N/M) and nerve to adipose (N/A) ratios. Fluorescence intensity measurements were divided by the exposure time to obtain normalized intensity per second measurements. Mean nerve to background tissue ratios (N/M and N/A) were calculated for each Oxazine derivative. For nerve imaging at depth image analysis, fluorescent line profiles and 3-D intensity topographical plots were generated in ImageJ using the plot profile and surface plot functions, respectively. The line profiles were background and exposure time corrected by dividing by the exposure time of each image and subtracting the average intensity of background pixels from the entire line profile. […]

swine peripheral nerves = experiment: Swine nerve imaging on da Vinci Si surgical system; format: in vivo; conditions: for nerve contrast against key surgical tissue classes (adipose, muscle, vasculature, peritoneal): laparoscopic; for SBR of buried nerve tissues: underlying peritoneal tissue and several millimeters of mixed adipose and muscle tissues, semi-quantitative
From the text: A custom-built laparoscopic imaging system also capable of real-time color and fluorescence imaging was used to acquire in vivo swine images and videos. The imaging system was integrated into the da Vinci Si surgical system (Intuitive Surgical, Sunnyvale, Calif.) and consisted of a Necsel Neon 5 W 640 nm laser (Necsel, Milpitas, Calif.) coupled to the da Vinci Si endoscope with a 642 nm StopLine single-notch blocking filter (Semrock, Rochester, N.Y.). The single-notch blocking filter was placed in the Si camera sterile adaptor between the rod lens endoscope and the Si camera head. Fluorescent signal acquisition occurred in the Si white light mode with the blocking filter removing the excitation light and the fluorescent signal detected primarily on the red, green, blue (RGB) red-Bayer elements of a modified Si endoscope camera head. Laser power at the endoscope tip measured 800 mW with the optical power loses occurring primarily at the laser fiber/light guide and the Si camera head/rod lens interfaces. Fluorescence and color videos were captured using the Si Vision side cart at an exposure time of 2 ms. Videos were recorded on a Panasonic HD-SDI recorder connected to the TilePro video out connections on the da Vinci Si Vision side cart. Video clips were edited in iMovie to crop their length and include text overlays. Screen captures of the in vivo video clips were collected and are presented as figures. Da Vinci Si imaging display algorithms apply non-linear gamma and color corrections to the collected video, and thus, while image quantification is possible to report what would be visible to surgeons intraoperatively, these values are only semi-quantitative and could vary from what is observed in a more controlled system.
Swine nerve imaging studies of Oxazine derivatives. LGW01-08 and LGW05-75 were administered via IV injection at a body surface area scaled dose from mice for swine nerve imaging studies (0.34 mg/kg) (Nair & Jacob, J Basic Clin Pharm 7, 27-31 (2016) and Sharma & McNeill, Br J Pharmacol 157, 907-921 (2009)). Nerves running along the body wall in the peritoneal cavity buried beneath 1-3 mm of fascia and adipose tissue were imaged using the previously described fluorescence enabled laparoscopic imaging system docked to the da Vinci Si Surgical System. Nerve contrast was monitored immediately following injection and up to 6 hours after systemic administration. Dissection and resection of the identified nerve structures was performed using the da Vinci system, where the resected tissues were fixed in formalin. The fixed tissues were sent to the OHSU Histopathology Shared Resource for paraffin embedding, sectioning and subsequent gold standard H&E staining.
Image analysis of intraoperative nerve contrast. Custom written MatLab code was used to analyze the tissue specific fluorescence where regions of interest (ROIs) were selected on the nerve, muscle and adipose tissue using the white light images, but blinded to the fluorescence images. These ROIs were then analyzed on the co-registered, matched fluorescence images permitting assessment of the mean tissue intensities as well as the nerve to muscle (N/M) and nerve to adipose (N/A) ratios. Fluorescence intensity measurements were divided by the exposure time to obtain normalized intensity per second measurements. Mean nerve to background tissue ratios (N/M and N/A) were calculated for each Oxazine derivative. For nerve imaging at depth image analysis, fluorescent line profiles and 3-D intensity topographical plots were generated in ImageJ using the plot profile and surface plot functions, respectively. The line profiles were background and exposure time corrected by dividing by the exposure time of each image and subtracting the average intensity of background pixels from the entire line profile. […] In addition, non-uniform tissue surfaces, variable endoscope-tissue positioning, and vignetting add further complications to resolving tissue-level SBRs.

CCNc1cc2oc3cc(=[N+](CC)CC)ccc-3nc2cc1C [LGW01-08, N-ethyl-N-(7-(ethylamino)-8-methyl-3H-phenoxazin-3-ylidene)ethanaminium]
Max Abs [1]: 638 nm
Max Em [1]: 659 nm
Max Ex [1]: 640 nm
Extinction coefficient [1]: 78650 M⁻¹ cm⁻¹
Quantum yield [1]: 5.68%
nerve specificity (N/M contrast vs control group) via direct administration [2]: high nerve specificity
N/M and N/A ratios vs unstained control animals [2]: significantly higher N/M and N/A ratios than unstained control animals
nerve specificity / nerve contrast (N/M vs control group) following systemic administration ([3]; IV): high nerve specificity
N/M and N/A ratios vs unstained control animals [3]: significantly higher N/M and N/A ratios than unstained control animals
width of smallest nerve branches distinguished under muscle tissue ([4]; direct administration, under 1 mm of muscle tissue): ~200 μm
thickness of muscle tissue under which nerve tissue could be identified ([4]; following both systemic and direct administration, 700 nm channel filters): up to 2 mm
time post-injection at which signal approached background levels (swine peripheral nerves; swine, IV 0.34 mg/kg): ~4 h
nerve contrast against key surgical tissue classes (adipose, muscle, vasculature, peritoneal) (swine peripheral nerves; swine): positive nerve contrast
SBR of buried nerve tissues (swine peripheral nerves; swine): ~1.5
faster time to positive N/A and N/M fluorescence compared to current visible-emissive agents (swine peripheral nerves; systemic administration): 2-6 fold
time post-injection to nerve signal / strong nerve contrast (swine peripheral nerves; systemic administration): 20 min

c1c2c(cc3c1N=c1cc4c(cc1O3)=NCC4)NCC2 [LGW07-55, 2,3,7,8-tetrahydro-1H-dipyrrolo[3,2-b:2′,3′-i]phenoxazin-9-ium]
Max Abs [1]: 619 nm
Max Em [1]: 634 nm
Max Ex [1]: 620 nm
Extinction coefficient [1]: 20163 M⁻¹ cm⁻¹
Quantum yield [1]: 28.25%
nerve specificity (N/M contrast vs control group) via direct administration [2]: positive nerve specificity
nerve specificity / nerve contrast (N/M vs control group) following systemic administration ([3]; IV): negative for nerve contrast

CC/N=c1/cc2oc3cc4c(cc3nc-2cc1C)OCCN4CC [LGW05-75, (Z)—N-(4-ethyl-9-methyl-3,4-dihydro-[1,4]oxazino[2,3-b]phenoxazin-8(2H)-ylidene)ethanaminium]
Max Abs [1]: 638 nm
Max Em [1]: 659 nm
Max Ex [1]: 640 nm
Extinction coefficient [1]: 57360 M⁻¹ cm⁻¹
Quantum yield [1]: 31.70%
nerve specificity (N/M contrast vs control group) via direct administration [2]: high nerve specificity
N/M and N/A ratios vs unstained control animals [2]: significantly higher N/M and N/A ratios than unstained control animals
nerve specificity / nerve contrast (N/M vs control group) following systemic administration ([3]; IV): high nerve specificity
N/M and N/A ratios vs unstained control animals [3]: significantly higher N/M and N/A ratios than unstained control animals
time after administration with strong nerve SBR (swine peripheral nerves; swine, IV 0.34 mg/kg): > 4.5 h
time required for sufficient background tissue clearance (swine peripheral nerves; swine, IV 0.34 mg/kg): ~1.5 h
nerve contrast against key surgical tissue classes (adipose, muscle, vasculature, peritoneal) (swine peripheral nerves; swine): positive nerve contrast
SBR of buried nerve tissues (swine peripheral nerves; swine): ~1.5

CCC/N=c1/cc2oc3cc(NCCC)c(C)cc3nc-2cc1C [LGW01-64, (Z)—N-(2,8-dimethyl-7-(propylamino)-3H-phenoxazin-3-ylidene)propan-1-aminium]
Max Abs [1]: 620 nm
Max Em [1]: 638 nm
Max Ex [1]: 620 nm
Extinction coefficient [1]: 50166 M⁻¹ cm⁻¹
Quantum yield [1]: 42.15%
nerve specificity (N/M contrast vs control group) via direct administration [2]: positive nerve specificity
nerve specificity / nerve contrast (N/M vs control group) following systemic administration ([3]; IV): negative for nerve contrast
toxicity upon systemic administration ([3]; IV, mice): toxic upon systemic administration

CC/N=c1/cc2oc3cc(N)ccc3nc-2cc1C [LGW06-97, (Z)—N-(7-amino-2-methyl-3H-phenoxazin-3-ylidene)ethanaminium]
Max Abs [1]: 599 nm
Max Em [1]: 617 nm
Max Ex [1]: 600 nm
Extinction coefficient [1]: 38616 M⁻¹ cm⁻¹
Quantum yield [1]: 25.39%
nerve specificity (N/M contrast vs control group) via direct administration [2]: positive nerve specificity
nerve specificity / nerve contrast (N/M vs control group) following systemic administration ([3]; IV): negative for nerve contrast

CC/N=c1/cc2oc3cc(NCC)cc(C)c3nc-2c(C)c1 [LGW02-95, (E)-N-(7-(ethylamino)-1,9-dimethyl-3H-phenoxazin-3-ylidene)ethanaminium]
Max Abs [1]: 606 nm
Max Em [1]: 627 nm
Max Ex [1]: 605 nm
Extinction coefficient [1]: 48653 M⁻¹ cm⁻¹
Quantum yield [1]: 32.50%
nerve specificity (N/M contrast vs control group) via direct administration [2]: positive nerve specificity
nerve specificity / nerve contrast (N/M vs control group) following systemic administration ([3]; IV): negative for nerve contrast
